According to patent US4705788A, “Novel antibacterial 7-amino-1(substituted cyclopropyl)-1,4-dihydro-4-oxo-3-quinolinecarboxylic acids” (Bayer Aktiengesellschaft, priority 1985, dated 1987):
Values after ≈ are worked out from the molar mass of the structure shown.

How the values were obtained:
Test in all cases: MIC, agar dilution test (Isosensitest medium), Denley multipoint inoculator
Assay type in all cases: cell-based
E. coli A 261 = conditions: Escherichia coli, A261, strain E. coli A 261
From the text: (§1) Agar dilution test (Isosensitest medium); Denley multipoint inoculator

E. coli Neumann = conditions: Escherichia coli, strain E. coli Neumann
From the text: as §1

E. coli T 7 = conditions: Escherichia coli, T7, strain E. coli T 7
From the text: as §1

Klebsiella 8085 = conditions: strain Klebsiella 8085
From the text: as §1

Row | Structure (SMILES) | MIC (E. coli A 261) | MIC (E. coli Neumann) | MIC (E. coli T 7) | MIC (Klebsiella 8085)
1 | CCn1cc(C(=O)O)c(=O)c2cc(F)c(N3CCNCC3)cc21 [Norfloxacin, reference compound] | 0.03 µg/mL (≈ 0.0939 µM) | 0.06 µg/mL (≈ 0.188 µM) | 0.06 µg/mL (≈ 0.188 µM) | 0.125 µg/mL (≈ 0.391 µM)
2 | CC1(n2cc(C(=O)O)c(=O)c3cc(F)c(N4CCNCC4)cc32)CC1 [Example 1, 6-fluoro-1,4-dihydro-1-(1-methylcyclopropyl)-4-oxo-7-(1-piperazinyl)-3-quinolinecarboxylic acid] | ≤ 0.015 µg/mL | 0.06 µg/mL (≈ 0.174 µM) | ≤ 0.015 µg/mL | 0.03 µg/mL (≈ 0.0869 µM)
3 | CC1CN(c2cc3c(cc2F)c(=O)c(C(=O)O)cn3C2(C)CC2)CCN1 (stereo not drawn) [Example 3] | 0.03 µg/mL (≈ 0.0835 µM) | 0.06 µg/mL (≈ 0.167 µM) | 0.03 µg/mL (≈ 0.0835 µM) | 0.06 µg/mL (≈ 0.167 µM)
